Measurements as given in patent US20200276107A1, “Treatment of herpes simplex symptoms on skin and mucous membrane of mammals” (priority 2017, published 2020).

System: herpes simplex labialis
Assay: In vivo topical treatment, test group A (four individuals)
Design: species or system human
Conditions: common topical medication 5 to 6 times per day
Experimental: Antiviral performance of the composition of the present invention was evaluated in vivo. The test group A consisted of four individuals suffering from herpes simplex labialis. […] As infections were untreated, the individuals were normally healing in between 7 to 10 days. The time from initiation of the symptoms to when the patients experienced relief of pain from the affected area was between 5 to 7 days. […] The time from initiation of the symptoms to time when the patients experienced relief of pain from the affected area was 3 to 5 days.
The herpes infections of test group were treated topically with a composition containing the polyamine polymer silver complex of the present invention with the following results. The composition was applied topically to the affected areas to cover the cold sores with a coating of the composition two times a day. The time from initiation of the cold sores and treatment with the composition to complete healing averaged between about 2 to 3 days. The time from the initiation of the treatment to when the patients experienced relief of pain from the affected area was about 10 to 15 minutes after the first application.

Nc1nc2c(ncn2COCCO)c(=O)[nH]1 [acyclovir]
time from initiation of the symptoms to relief of pain from the affected area: 3 to 5 days
time to healing: 5 to 7 days
